Here are results for six compounds from patent publication US20190282673A1, “STAPHTAME ACTIVITY ON BIOFILMS” (priority 2016, published 2019).

Where two headings read alike, the source gives them in different places.

One assay relates to S. aureus. The assay is described as follows: MIC and checkerboard synergy (broth microdilution) on planktonic cells. As to conditions: for MIC: Staphylococcus aureus, read-out: MIC (drug alone). In kind it is cell-based, Staphylococcus aureus. The protocol:
MIC was determined using a modified Clinical and Laboratory Standards Institute (CLSI) broth microdilution procedure described earlier in Vipra, et al. (2012) “Antistaphylococcal activity of bacteriophage derived chimeric protein P128” BMC Microbiol. 12:41-50; and Clinical and Laboratory Standards Institute (2012) “Methods for Dilution Antimicrobial Susceptibility Tests for Bacteria That Grow Aerobically; Approved Standard” CLSI document M07-A9.9 ed. Wayne, Pa. USA. In order to determine effects of combinations of P128 with antibiotics, combinations of various dilutions of P128 and a second drug were tested for growth inhibition using a microdilution checkerboard technique. See Lu, et al. (2013) “In vitro activity of sodium new houttuyfonate alone and in combination with oxacillin or netilmicin against methicillin-resistant Staphylococcus aureus” PLoS One 8:e68053. Briefly, S. aureus culture at a final cell number of 5×10^5 CFU/mL was added to wells of 96-well microtiter plates (precoated with 0.5% BSA), containing two-fold dilutions of P128 and the second drug in cation adjusted Mueller Hinton Broth (CAMHB). The plates were incubated at 37° C. for 24 h and the individual MICs and the combination MICs were read. The fractional inhibitory concentration index (FICI) was determined using the following equation: FICI=(MIC of drug A in the combination/MIC of drug A alone)+(MIC of drug B in the combination/MIC of drug B alone). The combination was considered to be synergistic when the FICI was ≤0.5; additive when FICI was 0.5-1.0; indifferent when FICI was 1-4 and antagonistic when FICI≥4. The experiments were performed in triplicate and repeated twice.
In order to find out whether P128 can act in a synergistic manner with commonly used antibiotics, MIC based growth inhibition assays were performed. MIC based synergy was studied by checkerboard method by determining the FIC index using the method of Lu, et at (2013) “In vitro activity of sodium new houttuyfonate alone and in combination with oxacillin or netilmicin against methicillin-resistant Staphylococcus aureus” PLoS One 8:e68053. […] Similarly.
(§1) Bacterial cultures at a final cell number of 5×10^5 CFU/mL was added to wells of 96-well microtiter plates (precoated with 0.5% BSA), containing two-fold dilutions of P128 and the second drug in cation adjusted Mueller Hinton Broth (CAMHB). The plates were incubated at 37° C. for 24 h and the individual MICs and the combination MICs were read. The fractional inhibitory concentration index (FICI) was determined using the following equation: FICI=(MIC of drug A in the combination/MIC of drug A alone)+(MIC of drug B in the combination/MIC of drug B alone). The combination was considered to be synergistic when the FICI was ≤0.5; additive when FICI was 0.5-1.0; indifferent when FICI was 1-4 and antagonistic when FICI≥4.

A further assay has as its system S. epidermidis. The assay is described as above. In kind it is cell-based, Staphylococcus epidermidis. The following applies: for MIC: Staphylococcus epidermidis. The protocol:
as §1
S. epidermidis culture at a final cell number of 5×10^5 CFU/mL was added to wells of 96-well microtiter plates (precoated with 0.5% BSA), containing two-fold dilutions of P128 and either Daptomycin or Oxacillin in cation adjusted Mueller Hinton Broth (CAMHB). CAMHB was supplemented with 50 µg/mL Ca^++ for daptomycin assay. The plates were incubated at 37° C. for 24 h and the individual MICs and the combination MICs were read. The fractional inhibitory concentration index (FICI) was determined using the following equation: FICI=(MIC of drug A in the combination/MIC of drug A alone)+(MIC of drug B in the combination/MIC of drug B alone). The combination was considered to be synergistic when the FICI was ≤0.5; additive when FICI was between 0.5-1.0; indifferent when FICI was between 1-4 and antagonistic when FICI was ≥4. The experiments were performed in triplicate and repeated twice.

The subject of another assay is S. aureus biofilms. The experiment in a line: MBIC and checkerboard synergy on preformed biofilm (MTT assay). In kind it is cell-based, Staphylococcus aureus. Here is the method: […] LB supplemented with 50 μg/mL CaCl2 was used for daptomycin treatment wells. The contents of the well was aspirated out and discarded. The biofilm adhered to the wells was quantified by MTT assay as described above. The MBIC was defined as the minimum concentration of P128 or the drug showing no colour development. […] In each experiment, in addition to the combination MBIC, the MBIC of each drug was also determined individually. The fractional MBIC concentrations were determined by MTT dye method as described above. The FICI and synergy was also calculated in a similar manner.
The ability of P128 to inhibit growth of S. aureus in a preformed biofilm was measured by determining minimum biofilm inhibition concentration (MBIC), defined as minimum concentration showing growth inhibition in a MTT based assay. […] 11:226.
The assay was optimized using the standard S. aureus strain ATCC 29213. An overnight-grown culture of the strain was diluted 1:40 in LB broth 200 μL of diluted culture was aliquoted into microtiter plate wells. Microplates were placed in a shaker-incubator set to 37° C., and 100 rpm for 24 h followed by 48 h incubation under static conditions at 37° C. The contents of one set of four wells were aspirated and discarded. Wells were washed twice with 1×PBS and the presence of biofilm in the wells at the end of this 72-hour period was determined by metabolic dye-reduction assay method using MTT (3-(4, 5-dimethylthiazol-5-diphenyltetrazolium bromide; Himedia). In this assay, live cells reduce the dye leading to color formation which can be read at 570 nm, and the intensity of color can be correlated to number of live cells. 100 μL of PBS was added to the wells along with 10 μL of MTT solution. The plate was incubated for 2 h in the dark. After this, 110 μL of solvent solution solubilizing agent was added and the plate was incubated for 15 minutes at ambient temperature with gentle agitation. The absorbance was read at 570 nm in a microplate reader. Another set of four wells was processed for harvesting the biofilm and determination of CFUs present by plating on solid media. For biofilm inhibitory studies, the wells were washed twice with 1×PBS and challenged with various concentrations of P128 or other antibiotic drugs and incubated for 24 h at 37° C. The contents of the well was aspirated out and discarded. The biofilm adhered to the wells was quantified by MTT assay as described above. The MBIC was defined as the minimum concentration of P128 or the drug showing no colour development. […] In each experiment, in addition to the combination MBIC, the MBIC of each drug was also determined individually. The fractional MBIC concentrations were determined by MTT dye method as described above. The FICI and synergy was also calculated in a similar manner.
In order to determine whether P128 could synergize with known anti-Staphylococcus drugs to inhibit S. aureus in biofilms. […] The assays were performed in a 96 well checkerboard format using various concentrations of P128 and one of the antibiotics.
A general note: Tetrazolium dyes change colour on reduction, which living cells bring about.

For another assay, the system named is S. aureus BK1 biofilms. The assay is described as follows: Scanning electron microscopy of treated biofilms in microtitre plates. In kind it is cell-based, Staphylococcus aureus. As to conditions: Gentamycin 50 μg/mL; P128 12.5 μg/mL (lowest concentration tested). Here is the method: MRSA strain BK1 or MW2 was used for studying biofilm eradication activity of P128 by SEM. For this, biofilms formed in microtitre plates or on the surface of catheters were treated with increasing concentrations of P128 or antibiotics and subjected to SEM. S. aureus BK1 or MW2 was revived on blood agar plates and the culture was grown overnight in TSB supplemented with 20% glucose. The overnight-grown culture was diluted 1:50 in TSB with 2% glucose to achieve OD600=˜0.1. 200 μL of the diluted culture was aliquoted into each well of the 96 well plate and incubated at 37° C. under static conditions for 18 h. After incubation the contents were aspirated, washed twice with 200 μL of PBS, and 100 μL of media+100 μL of drug were added to each well and incubated again at 37° C. for 18 h. The contents were aspirated, washed with 200 μL of PBS and allowed to dry at 37° C. for 15 min. The individual wells were cut out and biofilms visualized by SEM.

[1] abbreviates: Table 4, S. aureus ATCC 29213 preformed biofilm, 6 h.
[2] abbreviates: Table 4, S. aureus ATCC 29213 preformed biofilm, 24 h.
Where [3] appears, read: Table 4, S. aureus B9241 preformed biofilm, 6 h.
The mark [4] stands for this setting: Table 4, S. aureus B9241 preformed biofilm, 24 h.
Setting [5] is: Table 4, S. aureus BK1 preformed biofilm, 6 h.
Setting [6] is: Table 4, S. aureus BK1 preformed biofilm, 24 h.

Turning to `CC[C@H]1OC(=O)[C@H](C)[C@@H](O[C@H]2C[C@@](C)(OC)[C@@H](O)[C@H](C)O2)[C@H](C)[C@@H](O[C@@H]2O[C@H](C)C[C@H](N(C)C)[C@H]2O)[C@](C)(O)C[C@@H](C)CN(C)[C@H](C)[C@@H](O)[C@]1(C)O` [Azithromycin, azithromycin], the MIC in the assay with S. aureus (24 h, S. aureus BK18) came to 2 µg/mL.

For `Cc1onc(-c2ccccc2)c1C(=O)N[C@@H]1C(=O)N2[C@@H]1SC(C)(C)[C@@H]2C(=O)O` [Oxacillin, oxacillin], the MIC with S. aureus (MRSA / USA300, 24 h, S. aureus USA 300 (MRSA)) was over 16 µg/mL; with S. aureus (MRSA, 24 h, MRSA strain BK22), over 16 µg/mL; in the assay on S. aureus (MRSA, 24 h, S. aureus COL (MRSA)) it was over 16 µg/mL; in the assay with S. aureus (MRSA, 24 h, S. aureus MW2 (MRSA)) it was over 16 µg/mL; in the assay on S. epidermidis (S. epidermidis B9467, read-out: MIC (drug alone)) it was 8 µg/mL; in the assay with S. epidermidis (S. epidermidis B9468, read-out: MIC (drug alone)) it was 0.12 µg/mL. The MIC in the assay on S. epidermidis (S. epidermidis B9470, read-out: MIC (drug alone)) is over 8 µg/mL; in the assay with S. epidermidis (S. epidermidis B9471, read-out: MIC (drug alone)) it was over 8 µg/mL; in the assay on S. epidermidis (S. epidermidis B9472, read-out: MIC (drug alone)) it was 16 µg/mL; with S. epidermidis (S. epidermidis B9473, read-out: MIC (drug alone)) it was 16 µg/mL; in the assay with S. epidermidis (S. epidermidis, read-out: MIC on resistant strains), 0.12 µg/mL; with S. epidermidis (S. epidermidis, read-out: MIC on the sensitive strains), 16 µg/mL. Besides, the “MIC (drug alone)” value in the assay on S. epidermidis (S. epidermidis B9470) and in the assay on S. epidermidis (S. epidermidis B9471) was 16 µg/mL in each case.

For `Cc1nnc(SCC2=C(C(=O)O)N3C(=O)[C@@H](NC(=O)Cn4cnnn4)[C@H]3SC2)s1` [Cephazolin, cephazolin], the “MIC (drug alone)” value was over 10 µg/mL in the assay with S. aureus (S. aureus COL (MRSA)), 5 µg/mL with S. aureus (S. aureus MW2 (MRSA)) and over 10 µg/mL in the assay on S. aureus (S. aureus USA 300 (MRSA)).

In the case of gentamycin [reference compound], the “MBIC (individual)” value in the assay on S. aureus biofilms (setting [1]), in the assay on S. aureus biofilms (setting [2]), with S. aureus biofilms (setting [3]), in the assay on S. aureus biofilms (setting [4]), in the assay on S. aureus biofilms (setting [5]) and in the assay with S. aureus biofilms (setting [6]) was over 1000 µg/mL in each case. Also, the “Reduction in MBIC in combination with P128” value in the assay on S. aureus biofilms (gentamycin sensitive strains ATCC29213 and BK1) is given as over 250 fold. The “MIC (drug alone)” value in the assay with S. aureus (S. aureus ATCC 29213 (MSSA)) came out at 0.4 µg/mL; in the assay with S. aureus (S. aureus B9241 (gentamycin and ciprofloxacin resistant)), 62 µg/mL; in the assay with S. aureus (S. aureus BK1 (MRSA, ciprofloxacin resistant)) it was 0.4 µg/mL. Further, in the assay on S. aureus (planktonic S. aureus, strains resistant to the drug), the “MIC on resistant strains” value was determined as 62 µg/mL. For the same compound, in the assay on S. aureus (planktonic S. aureus, strains sensitive to the drug), the “MIC on sensitive strains” value turned out to be 0.4 µg/mL. Also, the “Effect on biofilm by SEM” value in the assay on S. aureus BK1 biofilms is “did not have any appreciable effect”.

For the compound `CN(C)c1cc(NC(=O)CNC(C)(C)C)c(O)c2c1C[C@H]1C[C@H]3[C@H](N(C)C)C(O)=C(C(N)=O)C(=O)[C@@]3(O)C(O)=C1C2=O` [Tigecycline], the MIC in the assay with S. aureus (24 h, S. aureus BK18) was found to be 4 µg/mL.

`O=C(O)c1cn(C2CC2)c2cc(N3CCNCC3)c(F)cc2c1=O` [Ciprofloxacin, ciprofloxacin, reference compound]: the “MBIC (individual)” value in the assay with S. aureus biofilms (setting [1]) is over 250 µg/mL; with S. aureus biofilms (setting [2]), 6.5 µg/mL; with S. aureus biofilms (setting [3]) it was over 250 µg/mL; in the assay with S. aureus biofilms (setting [4]) it was 250 µg/mL; in the assay with S. aureus biofilms (setting [5]), over 250 µg/mL; with S. aureus biofilms (setting [6]) it was over 250 µg/mL.

What is called MIC is the lowest concentration found to suppress growth.
